From patent publication US10155754B2, “Substituted 2-imino-1,3-thiazolidin-4-ones as N-arachidonoylethanolamine cellular uptake inhibitors” (UNIVERSITAT BERN, priority 2014, dated 2018)

Tested on: AEA cellular uptake (U937 cells)
Experiment: [3H]-AEA cellular uptake inhibition in U937 cells
Assay type: cell-based
Conditions: Homo sapiens, U-937, U937 cells, final 100 nM AEA with 0.5 nM [3H]-AEA, 15 min at 37° C.; read-out: AEA uptake IC50
Experimental: [^3H]-AEA Cellular Uptake
Screening for AEA cellular uptake inhibition was performed in a semi-automated procedure: Pipetting and washing steps were performed by a Biomek3000 laboratory workstation. First, required amounts of U937 cells were centrifuged at 100×g for 5 min and resuspended in RPMI (37° C.) to a final concentration of 2×10^6 cells/mL. Then, 250 μL of cell suspension (0.5×10^6 cells per sample) were transferred into AquaSil™ silanized glass vials (Chromacol 1.1-MTV) in 96-well format. After addition of 5 μL vehicle (DMSO) or compounds the cells were incubated at 37° C. for 15 min. As positive controls OMDM-2 and UCM707 were used at 10 μM in each run. The ETI-T compounds were measured at up to 7 concentrations in triplicates from 100 pM-100 μM. After pre-incubation, a mixture of 0.5 nM [ethanolamine-1-^3H]-AEA, (60 Ci/mmol) and 99.5 nM of cold AEA (final 100 nM) was added and samples were incubated at 37° C. for another 15 min. The reaction was stopped by rapid filtration over UniFilter-96 GF/C filters (PerkinElmer) pre-soaked with PBS 0.25% BSA. Cells were washed three times with 100 μL ice-cold PBS buffer containing 1% fatty acid free BSA. After drying, 45 μL MicroScint 20 scintillation cocktail (PerkinElmer, Waltham, Mass., US) was added to the wells and the plate was sealed. Radioactivity was measured by liquid scintillation counting on a PerkinElmer Wallac Trilux MicroBeta 1450 during 2 min. Non-specific binding of [^3H]AEA (100 nM) to the glass vials was never higher than 10%. IC50 values were calculated by GraphPad® by non-linear regression using the built-in log(inhibitor) vs. response-variable slope (four parameters) function.

SMILES	IC50 [nM]
O=C1/C(=C/c2ccc3[nH]cnc3c2)S/C(=N\CCc2ccccc2)N1c1ccccc1 [04_U_N, (2Z,5Z)-5-((1H-benzo[d]imidazol-5-yl)methylene)-2-(phenethylimino)-3-phenylthiazolidin-4-one]	1400
CCCCCCCCCCCCN1C(=O)/C(=C/c2ccc(CO)cc2)S/C1=N\c1ccc(C)cc1 [04_A_V, (2Z,5Z)-5-(4-(hydroxymethyl)benzylidene)-2-(p-tolylimino)-3-dodecylthiazolidin-4-one]	> 10000
Cc1ccc(N2C(=O)/C(=C/c3ccc4[nH]ccc4c3)S/C2=N\c2ccc(F)cc2)cc1 [03_B_A, (2Z,5Z)-5-((1H-indol-5-yl)methylene)-2-(4-fluorophenylimino)-3-p-tolylthiazolidin-4-one]	760
O=C1/C(=C/c2ccc3[nH]cnc3c2)S/C(=N\c2ccccc2)N1CCCc1ccccc1 [04_N_K, (2Z,5Z)-5-((1H-benzo[d]imidazol-5-yl)methylene)-2-(phenylimino)-3-(3-phenylpropyl)thiazolidin-4-one]	727
O=C1/C(=C/c2ccc3[nH]ccc3c2)S/C(=N\Cc2ccccc2)N1CCc1ccccc1 [03_C_O, (2Z,5Z)-5-((1H-indol-5-yl)methylene)-2-(benzylimino)-3-phenethylthiazolidin-4-one]	727
O=C1/C(=C/c2ccc3[nH]cnc3c2)S/C(=N\Cc2ccccc2)N1CCc1ccccc1 [04_C_O, (2Z,5Z)-5-((1H-benzo[d]imidazol-5-yl)methylene)-2-(benzylimino)-3-phenethylthiazolidin-4-one]	1120
O=C1/C(=C/c2ccc3[nH]cnc3c2)S/C(=N\Cc2ccccc2)N1CCCc1ccccc1 [04_C_K, (2Z,5Z)-5-((1H-benzo[d]imidazol-5-yl)methylene)-2-(benzylimino)-3-(3-phenylpropyl)thiazolidin-4-one]	1140
CCCCN1C(=O)/C(=C/c2ccc3[nH]cnc3c2)S/C1=N\Cc1ccccc1 [04_C_G, (2Z,5Z)-5-((1H-benzo[d]imidazol-5-yl)methylene)-2-(benzylimino)-3-butylthiazolidin-4-one]	1060

More lines, now with the values ahead:

IC50 [nM]	SMILES
1090	CCCCN1C(=O)/C(=C/c2ccc(CO)cc2)S/C1=N\c1ccccc1 [22_N_G, (2Z,5Z)-5-(4-(hydroxymethyl)benzylidene)-3-butyl-2-(phenylimino)thiazolidin-4-one]
500	O=C1/C(=C/c2ccc(CO)cc2)S/C(=N\Cc2ccc(F)cc2)N1c1ccccc1 [22_P_N, (2Z,5Z)-5-(4-(hydroxymethyl)benzylidene)-2-(4-fluorobenzylimino)-3-phenylthiazolidin-4-one]
663	O=C1/C(=C/c2ccc3c(c2)OCCO3)S/C(=N\c2ccc(F)cc2)N1c1ccc(Cl)cc1 [24_B_L, (2Z,5Z)-2-(4-fluorophenylimino)-3-(4-chlorophenyl)-5-((2,3-dihydrobenzo[b][1,4]dioxin-6-yl)methylene)thiazolidin-4-one]
515	Cn1ncc2cc(/C=C3\S/C(=N\c4ccccc4)N(c4ccccc4)C3=O)ccc21 [compound 28, (2Z,5Z)-5-((1-methyl-1H-indazol-5-yl)methylene)-3-phenyl-2-(phenylimino)thiazolidin-4-one]
1560	O=C1/C(=C/c2ccc(CO)cc2)S/C(=N\Cc2ccccc2)N1CCc1ccccc1 [15_C_O, (2Z,5Z)-5-(4-(hydroxymethyl)benzylidene)-2-(benzylimino)-3-phenethylthiazolidin-4-one]
1310	O=C1/C(=C/c2ccc(CO)cc2)S/C(=N\c2ccccc2)N1Cc1ccco1 [22_N_M, (2Z,5Z)-5-(4-(hydroxymethyl)benzylidene)-3-((furan-2-yl)methyl)-2-(phenylimino)thiazolidin-4-one]
632	Cc1ccc(N2C(=O)/C(=C/c3ccc4[nH]cnc4c3)S/C2=N\c2ccc(F)cc2)cc1 [32_B_A, (2Z,5Z)-5-((1H-benzo[d]imidazol-5-yl)methylene)-2-(4-fluorophenylimino)-3-p-tolylthiazolidin-4-one]
692	COCc1cccc(/C=C2\S/C(=N\Cc3ccccc3)N(CCCc3ccccc3)C2=O)c1 [15_C_K, (2Z,5Z)-5-(3-(methoxymethyl)benzylidene)-2-(benzylimino)-3-(3-phenylpropyl)thiazolidin-4-one]
10400	O=C1/C(=C/c2ccc(CO)cc2)S/C(=N\Cc2ccccc2)N1Cc1ccccc1 [22_C_C, (2Z,5Z)-5-(4-(hydroxymethyl)benzylidene)-3-benzyl-2-(benzylimino)thiazolidin-4-one]
1120	O=C1/C(=C/c2ccccc2)S/C(=N\c2ccccc2)N1CCCc1ccccc1 [23_N_K, (2Z,5Z)-5-benzylidene-2-(phenylimino)-3-(3-phenylpropyl)thiazolidin-4-one]
753	CCCCN1C(=O)/C(=C/c2ccccc2)S/C1=N\Cc1ccccc1 [23_C_G, (2Z,5Z)-5-benzylidene-2-(benzylimino)-3-butylthiazolidin-4-one]

Same assay, conditions: Homo sapiens, U-937, U937 cells, final 100 nM AEA with 0.5 nM [3H]-AEA, 15 min at 37° C.; read-out: AEA uptake inhibition IC50

SMILES	IC50 [nM]
Cc1ccc(/N=C2\S/C(=C\c3ccccc3)C(=O)N2c2ccccc2)cc1	3240
CSc1ccc(/C=C2\S/C(=N\c3ccccc3)N(c3ccccc3)C2=O)cc1	9940
O=C1/C(=C/c2ccccc2)S/C(=N\c2ccccc2)N1c1ccccc1	2780
COc1ccc(/C=C2\S/C(=N\c3ccc(C)cn3)N(c3ccccc3)C2=O)cc1	2800
Cc1ccc(/N=C2\S/C(=C\c3ccc4[nH]ccc4c3)C(=O)N2c2ccccc2)nc1	2730
O=C1/C(=C/c2ccc3scnc3c2)S/C(=N\c2ccccc2)N1c1ccccc1	11800
COc1ccc(/C=C2\S/C(=N\c3ccccc3)N(c3ccccc3)C2=O)nc1	6600
O=C1/C(=C/c2ccc3cc[nH]c3c2)S/C(=N\c2ccccc2)N1c1ccccc1	2300
O=C1/C(=C/c2ccc3[nH]cnc3c2)S/C(=N\Cc2ccccc2)N1c1ccccc1	2140
C/N=C1\S/C(=C\c2ccc(OC)cc2)C(=O)N1c1ccccc1	6920

Other lines, results leading:

IC50 [nM]	SMILES
1000	COCc1cccc(/C=C2\S/C(=N\c3ccccc3)N(c3ccccc3)C2=O)c1 [drawing 117]
817	O=C1/C(=C/c2ccc3c(c2)OCCO3)S/C(=N\c2ccccc2)N1c1ccccc1 [drawing 119]
515	Cn1ncc2cc(/C=C3\S/C(=N\c4ccccc4)N(c4ccccc4)C3=O)ccc21 [drawing 126]
1590	Cc1ccc(/N=C2\S/C(=C\c3ccc4[nH]cnc4c3)C(=O)N2c2ccccc2)nc1 [drawing 146]
879	O=C1/C(=C/c2ccc3[nH]ccc3c2)S/C(=N\c2ccccc2)N1Cc1ccco1 [drawing 153]
257	O=C1/C(=C/c2ccc(CO)cc2)S/C(=N\Cc2ccccc2)N1c1ccccc1 [drawing 142]
170	O=C1/C(=C/c2ccc3c(c2)OCCO3)S/C(=N\Cc2ccccc2)N1c1ccccc1 [drawing 133]
291	O=C1/C(=C/c2ccc3ncsc3c2)S/C(=N\c2ccccc2)N1c1ccccc1 [drawing 129]
135	COc1ccc(/N=C2\S/C(=C\c3ccc(CO)cc3)C(=O)N2c2ccccc2)cc1 [drawing 140]
1070	COc1ccc(/N=C2\S/C(=C\c3ccc4[nH]ccc4c3)C(=O)N2c2ccccc2)cc1 [drawing 150]
